One series deals with T1, Recombinant CETP enzyme (Homo sapiens, UniProt P11597).
T1 construct: purchased Cardiovascular Targets
T1 sequence (P11597 18-493): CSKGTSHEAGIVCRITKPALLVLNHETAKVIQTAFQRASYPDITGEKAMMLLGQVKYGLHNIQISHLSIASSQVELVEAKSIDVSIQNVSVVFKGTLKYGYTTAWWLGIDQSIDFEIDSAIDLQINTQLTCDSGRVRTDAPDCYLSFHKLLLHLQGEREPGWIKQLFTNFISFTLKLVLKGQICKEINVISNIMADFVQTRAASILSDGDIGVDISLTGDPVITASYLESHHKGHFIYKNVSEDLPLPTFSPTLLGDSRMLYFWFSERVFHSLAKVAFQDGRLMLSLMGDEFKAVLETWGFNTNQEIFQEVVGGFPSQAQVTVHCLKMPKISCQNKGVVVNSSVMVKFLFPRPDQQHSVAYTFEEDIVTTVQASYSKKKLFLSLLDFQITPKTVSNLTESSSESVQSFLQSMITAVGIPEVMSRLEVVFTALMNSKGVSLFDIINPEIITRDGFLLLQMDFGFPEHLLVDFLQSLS
Description: In vitro fluorescence-based CETP inhibition assay (BODIPY-CE transfer from donor to acceptor microemulsions). The class given is biochemical. The conditions noted are these: recombinant CETP 0.14 ng/μl; transfer of fluorescent cholesteryl ester monitored over 2 hours; vs DMSO controls. On the procedure: An in vitro fluorescence-based assay to identify CETP inhibitors was developed from modifications of the protocols outlined in Bisgaier et al., J Lipid Res., 34(9): 1625-34 (1993) and Epps et al., Chem Phys Lipids., 77(1): 51-63 (1995). Acceptor and donor lipid microemulsions were prepared according to Bisgaier et al., 1993, except that the buffer was prepared with 0.67 ug/mL human HDL (Calbiochem). Donor microemulsions contained the fluorescent cholesteryl ester analog BODIPY-CE (Molecular Probes), characterized by excitation and emission maxima at 503 nm and 518 nm, respectively. The CETP-mediated transfer of fluorescent cholesteryl ester to acceptor particles was monitored over a 2-hour time period using the FAM filter set (excitation 492 nm, emission 516 nm) in an MX3000P fluorescent plate reader (Stratagene). Recombinant CETP enzyme (Cardiovascular Targets) was used at 0.14 ng/μl, final concentration, to achieve lipid transfer. CETP inhibition by compounds was compared to DMSO controlsand graphed as a percentage of the control CETP activity over 2 hours. The IC50 curves for CETP inhibition were generated from the activity profiles. Active compounds were also tested for CETP inhibition as above, but in the presence of 3% human serum albumin, fraction V (Calbiochem).

As for `CCCS(=O)(=O)c1nc2c(C)cccc2cc1CN(Cc1cc(C(F)(F)F)cc(C(F)(F)F)c1)C(=O)OCC` [Example 136, (3,5-bis-trifluoromethyl-benzyl)-[8-methyl-2-(propane-1-sulfonyl)-quinolin-3-ylmethyl]-carbamic acid ethyl ester], the melting point came out at 98 °C. In turn, `CCN(CC1CCCC1)c1nc2c(cc1CN(Cc1cc(C(F)(F)F)cc(C(F)(F)F)c1)c1nc(C(F)(F)F)co1)c(C)nn2C` [Example 22, (5-{[(3,5-bis-trifluoromethyl-benzyl)-(4-trifluoromethyl-oxazol-2-yl)-amino]-methyl}-1,3-dimethyl-1H-pyrazolo[3,4-b]-pyridin-6-yl)-cyclopentylmethyl-ethyl-amine] came in with a melting point of 139 °C. Besides, the IC50 at Recombinant CETP enzyme is no more than 1000 nM. On to `CCOC(=O)c1c(CN(Cc2cc(C(F)(F)F)cc(C(F)(F)F)c2)c2nnn(C)n2)c2ccccc2n1C` [Example 125, 3-{[(3,5-bis-trifluoromethyl-benzyl)-(2-methyl-2H-tetrazol-5-yl)-amino]-methyl}-1-methyl-1H-indole-2-carboxylic acid ethyl ester], for which the melting point came to 83 °C. Still for that read-out and setting: in the case of `CCCSc1nc2c(C)cccc2cc1CN(Cc1cc(C(F)(F)F)cc(C(F)(F)F)c1)C(=O)OCC` [Example 135, (3,5-bis-trifluoromethyl-benzyl)-(8-methyl-2-propylsulfanyl-quinolin-3-ylmethyl)-carbamic acid ethyl ester] it was 42 °C. Consider `CCN(CC(C)(C)C)c1nc2c(cc1CN(Cc1cc(C(F)(F)F)cc(C(F)(F)F)c1)c1nnn(C)n1)c(C)nn2C` [Example 6, (5-{[(3,5-bis-trifluoromethyl-benzyl)-(2-methyl-2H-tetrazole-5-yl)-amino]-methyl}-1,3-dimethyl-1H-pyrazolo[3,4-b]pyridin-6-yl)-(2,2-dimethyl-propyl)-ethyl-amine], for which the melting point lay within 72 to 73 °C. Moreover, on Recombinant CETP enzyme, the IC50 is no more than 1000 nM.

`CCC[S+]([O-])c1nc2c(C)cccc2cc1CN(Cc1cc(C(F)(F)F)cc(C(F)(F)F)c1)C(=O)OCC` (centres unmarked) [Example 137, (3,5-bis-trifluoromethyl-benzyl)-[8-methyl-2-(propane-1-sulfinyl)-quinolin-3-ylmethyl]-carbamic acid ethyl ester] showed a melting point of 86 °C.

`CCN(CC1CCCC1)c1nc2ccccc2cc1CN(Cc1cc(C(F)(F)F)cc(C(F)(F)F)c1)c1nnn(C)n1` [Example 52] gave a melting point of 97 °C. Further, at Recombinant CETP enzyme, the IC50 is no more than 1000 nM.

Take `CCOC(=N)N(Cc1cc(C(F)(F)F)cc(C(F)(F)F)c1)Cc1cc2ccccc2nc1N(CC)CC1CCCC1` [Example 61]: the melting point was 158 to 160 °C. In addition, the IC50 at Recombinant CETP enzyme is no more than 5000 nM. The corresponding values for `CCN(c1nc2c(cc1CN(Cc1cc(C(F)(F)F)cc(C(F)(F)F)c1)c1nnn(C)n1)c(C)nn2C)C1CCCC1` [Example 8, (5-{[(3,5-bis-trifluoromethyl-benzyl)-(2-methyl-2H-tetrazole-5-yl)-amino]-methyl}-1,3-dimethyl-1H-pyrazolo[3,4-b]pyridin-6-yl)-cyclopentyl-ethyl-amine] are 43 to 44 °C and no more than 1000 nM. Consider `CCN(CC1CCCC1)c1nc2ccccc2cc1CN(Cc1cc(C(F)(F)F)cc(C(F)(F)F)c1)C(N)=S` [Example 62, 1-(3,5-bis-trifluoromethyl-benzyl)-1-[2-(cyclopentylmethyl-ethyl-amino)-quinolin-3-ylmethyl]-thiourea], for which the melting point was determined as 98 °C. `CCN(CC1CCCC1)c1nc2ccccc2cc1CN(Cc1cc(C(F)(F)F)cc(C(F)(F)F)c1)c1nnc(C)o1` [Example 58, (3-{[(3,5-bis-trifluoromethyl-benzyl)-(5-methyl-[1,3,4]oxodiazol-2-yl)-amino]-methyl)-quinolin-2-yl)-cyclopentylmethyl-ethyl-amine] displayed a melting point of 126 to 127 °C. At Recombinant CETP enzyme, the IC50 was no more than 5000 nM. Consider `Cc1cccc2cc(CN(Cc3cc(C(F)(F)F)cc(C(F)(F)F)c3)c3ncc(N4CCOCC4)cn3)c(N(CC3CC3)CC3CC3)nc12` [Example 106, (3-{[(3,5-bis-trifluoromethyl-benzyl)-(5-morpholin-4-yl-pyrimidin-2-yl)-amino]-methyl}-8-methyl-quinolin-2-yl)-bis-cyclopropylmethyl-amine], for which the melting point lay in the range of 123 to 124 °C.

`CCN(CC1CCC1)c1nc2c(cnn2CC)cc1CN(Cc1cc(C(F)(F)F)cc(C(F)(F)F)c1)c1nnn(C)n1` [Example 15, (5-{[(3,5-bis-trifluoromethyl-benzyl)-(2-methyl-2H-tetrazol-5-yl)-amino]-methyl}-1-ethyl-1H-pyrazolo[3,4-b]-yridin-6-yl)-cyclobutylmethyl-ethyl-amine] gave a melting point of 76 to 77 °C. For the same compound, the IC50 at Recombinant CETP enzyme is no more than 1000 nM. The corresponding values for `Cc1cccc2cc(CN(Cc3cc(C(F)(F)F)cc(C(F)(F)F)c3)c3nnn(C)n3)c(N(CC3CC3)CC3CC3)nc12` [Example 57] are 63 °C and no more than 1000 nM. The corresponding values for `CCN(CC1CCCC1)c1nc2ccccc2cc1CN(Cc1cc(C(F)(F)F)cc(C(F)(F)F)c1)C(N)=O` [Example 59, 1-(3,5 bistrifluoromethyl-benzyl)-1-[(2-cyclopentylmethyl-ethyl-amino)-quinoline-3-ylmethyl]-urea] are 92 to 94 °C and no more than 5000 nM. The matching figures for `Cc1nn(C)c2nc(N(CC3CCC3)CC3CC3)c(CN(Cc3cc(C(F)(F)F)cc(C(F)(F)F)c3)c3nnn(C)n3)cc12` [Example 5, (5-{[(3,5-bis-trifluoromethyl-benzyl)-(2-methyl-2H-tetrazole-5-yl)-amino]-methyl}-1,3-dimethyl-1H-pyrazolo[3,4-b]pyridin-6-yl)-cyclobutylmethyl-cyclopropylmethyl-amine]: 84 to 85 °C and no more than 1000 nM.

`CCN(CC1CCCC1)c1nc2ccccc2cc1CN(Cc1cc(C(F)(F)F)cc(C(F)(F)F)c1)c1nnnn1C` [Example 53, (3-{[(3,5-bis-trifluoromethyl-benzyl)-(1-methyl-1H-tetrazol-5-yl)-amino]-methyl}-quinolin-2-yl)-cyclopentylmethyl-ethyl-amine] registered a melting point of 110 °C. In addition, on Recombinant CETP enzyme, the IC50 was no more than 5000 nM. Regarding `Cc1cccc2cc(CN(Cc3cc(C(F)(F)F)cc(C(F)(F)F)c3)c3nnn(CCNC(=O)OC(C)(C)C)n3)c(N(CC3CC3)CC3CC3)nc12` [Example 86, (2-{5-[[2-(bis-cyclopropylmethyl-amino)-8-methyl-quinolin-3-ylmethyl]-(3,5-bis-trifluoromethyl-benzyl)-amino]-tetrazol-2-yl}-ethyl)-carbamic acid tert-butyl ester], the IC50 at Recombinant CETP enzyme was no more than 1000 nM.

The values above are taken from US8604055B2, “Substituted benzylamino quinolines as cholesterol ester-transfer protein inhibitors” (Dr. Reddy's Laboratories Ltd., priority 2004, dated 2013).
